Assay results taken from ChEMBL document CHEMBL1201862, “PubChem BioAssay data set” (2004).
Each block holds one compound with its values, some of them ahead of it. Active and inactive are the calls of the source.

Key:
[1] = molecular target: T1, Corticotropin-releasing factor receptor 2/Corticotropin-releasing factor-binding protein (Homo sapiens, UniProt P24387+Q13324); assay: Dose Response confirmation of uHTS hits for small molecule antagonists of the CRF-binding protein and CRF-R2 receptor complex.; type: functional; details: read-out: IC50_Mean
T1 sequence (Q13324 whole entry): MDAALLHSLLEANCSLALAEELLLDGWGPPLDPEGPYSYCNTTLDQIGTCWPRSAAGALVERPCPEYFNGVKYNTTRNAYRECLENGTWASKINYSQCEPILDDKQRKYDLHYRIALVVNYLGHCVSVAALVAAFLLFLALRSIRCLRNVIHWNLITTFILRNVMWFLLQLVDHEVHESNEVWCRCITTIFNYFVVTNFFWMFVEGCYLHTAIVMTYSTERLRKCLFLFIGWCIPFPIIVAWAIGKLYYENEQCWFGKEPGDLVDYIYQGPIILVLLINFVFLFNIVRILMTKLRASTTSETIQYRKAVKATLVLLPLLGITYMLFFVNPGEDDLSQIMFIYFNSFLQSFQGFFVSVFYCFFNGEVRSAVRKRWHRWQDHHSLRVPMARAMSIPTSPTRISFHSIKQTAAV
T1 sequence (P24387 whole entry): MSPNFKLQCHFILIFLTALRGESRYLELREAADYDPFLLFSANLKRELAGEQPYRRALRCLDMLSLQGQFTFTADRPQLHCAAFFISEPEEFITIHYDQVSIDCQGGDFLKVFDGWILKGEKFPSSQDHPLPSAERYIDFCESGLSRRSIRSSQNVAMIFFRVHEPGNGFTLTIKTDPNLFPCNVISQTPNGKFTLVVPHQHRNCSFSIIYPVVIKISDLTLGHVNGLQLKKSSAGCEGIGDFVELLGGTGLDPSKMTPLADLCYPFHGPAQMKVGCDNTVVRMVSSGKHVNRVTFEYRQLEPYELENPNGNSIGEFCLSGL

[2] = blockers of CRF-binding protein–CRF-R2 complex – cell-based, uHTS hits, 384-well, dose response (AID 651639); type: functional, Homo sapiens; details: read-out: IC50_Mean
[3] = molecular target: T1, Corticotropin-releasing factor receptor 2/Corticotropin-releasing factor-binding protein; assay: activators of CRF receptor 2 with binding protein – uHTS hits, confirmation (AID 602473); type: functional; details: read-out: EC50_Mean
[4] = molecular target: Nuclear receptor subfamily 5 group A member 2 (Homo sapiens, UniProt O00482); type: functional, cell-based;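 also: HEK293T cells transfected with LRH-1 and a StAR promoter luciferase reporter; potency for inhibitors that lower LRH-1 driven reporter light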
Steroidogenic factor 1 = Steroidogenic factor 1 (Homo sapiens, UniProt Q13285); assay: Counterscreen for inverse agonists of the liver receptor homolog-1 (LRH-1; NR5A2): Luminescence-based cell-based high throughput dose response assay to identify inverse agonists of the Steroidogenic Factor 1 Nuclear Receptor (SF1; NR5A1).; type: functional
[5] = nonselective StAR promoter luciferase inhibitors – cell-based, luminescence, luciferase reporter, counter-screen for LRH-1 inverse agonist project, dose response (AID 651969); type: functional
[6] = molecular target: T2, Sentrin-specific protease 8 (Homo sapiens, UniProt Q96LD8); type: functional
T2 sequence (Q96LD8 whole entry): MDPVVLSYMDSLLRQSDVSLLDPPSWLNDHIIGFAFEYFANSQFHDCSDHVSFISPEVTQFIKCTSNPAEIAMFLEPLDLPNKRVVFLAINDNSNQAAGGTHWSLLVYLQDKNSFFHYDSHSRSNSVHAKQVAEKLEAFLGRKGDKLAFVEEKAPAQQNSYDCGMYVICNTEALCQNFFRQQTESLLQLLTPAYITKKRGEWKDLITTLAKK

[7] = molecular target: T2, Sentrin-specific protease 8; type: functional; remark: listed apart in the source
Large T antigen = Large T antigen (Simian virus 40, UniProt P03070); type: functional, Betapolyomavirus macacae;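 also: Confirmatory-stage PubChem screen for compounds that inhibit SV40 T antigen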
[8] = molecular target: T3, Mitochondrial peptide methionine sulfoxide reductase (Bos taurus, UniProt P54149); assay: Absorbance-based biochemical high throughput dose response assay for activators of Methionine sulfoxide reductase A (MsrA).; type: functional
T3 sequence (P54149 whole entry): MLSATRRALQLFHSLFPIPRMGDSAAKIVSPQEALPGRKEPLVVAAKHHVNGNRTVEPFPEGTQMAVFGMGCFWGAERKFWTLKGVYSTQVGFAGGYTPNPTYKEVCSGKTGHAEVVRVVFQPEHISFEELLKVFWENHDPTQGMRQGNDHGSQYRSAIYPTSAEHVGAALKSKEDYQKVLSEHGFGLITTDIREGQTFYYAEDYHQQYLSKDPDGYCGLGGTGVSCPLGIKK

[9] = molecular target: T4, Carboxy-terminal domain RNA polymerase II polypeptide A small phosphatase 1 (Homo sapiens, UniProt Q9GZU7); assay: CTDSP1 inhibitors, concentration-response, biochemical, absorbance readout, ultra-high-throughput screen actives (AID 540297); type: functional
T4 sequence (Q9GZU7 whole entry): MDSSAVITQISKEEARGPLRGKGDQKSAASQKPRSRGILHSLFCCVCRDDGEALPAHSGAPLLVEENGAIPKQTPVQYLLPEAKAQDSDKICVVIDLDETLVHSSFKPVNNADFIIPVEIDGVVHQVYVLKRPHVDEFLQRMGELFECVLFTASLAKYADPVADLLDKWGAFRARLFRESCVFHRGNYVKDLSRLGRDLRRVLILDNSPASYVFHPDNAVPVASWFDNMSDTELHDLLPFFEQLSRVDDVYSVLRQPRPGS

Prothrombin = Prothrombin (Bos taurus, UniProt P00735); assay: thrombin protease inhibitors – biochemical, fluorescence polarization, uHTS hits, dose response (AID 602369); type: functional
[10] = molecular target: 26S proteasome non-ATPase regulatory subunit 14 (Homo sapiens, UniProt O00487); assay: inhibition of proteasome subunit RPN11 – biochemical, fluorescence polarization, uHTS hits, confirmation (AID 602368); type: functional
Genome polyprotein = Genome polyprotein (dengue virus type 2, UniProt P29990); assay: flavivirus cap methylation enzyme inhibition – biochemical, confirmation dose response, primary screen (AID 588689); type: functional
Aminopeptidase N = molecular target: T5, Aminopeptidase N (Plasmodium falciparum FcB1/Columbia, UniProt O96935); assay: malaria alanyl aminopeptidase activity blockers – biochemical, fluorogenic H-Leu-NHMec substrate, 1536-well (AID 1445); parameters: species or system Plasmodium falciparum 3D7, 3D7
T5 sequence (O96935 whole entry): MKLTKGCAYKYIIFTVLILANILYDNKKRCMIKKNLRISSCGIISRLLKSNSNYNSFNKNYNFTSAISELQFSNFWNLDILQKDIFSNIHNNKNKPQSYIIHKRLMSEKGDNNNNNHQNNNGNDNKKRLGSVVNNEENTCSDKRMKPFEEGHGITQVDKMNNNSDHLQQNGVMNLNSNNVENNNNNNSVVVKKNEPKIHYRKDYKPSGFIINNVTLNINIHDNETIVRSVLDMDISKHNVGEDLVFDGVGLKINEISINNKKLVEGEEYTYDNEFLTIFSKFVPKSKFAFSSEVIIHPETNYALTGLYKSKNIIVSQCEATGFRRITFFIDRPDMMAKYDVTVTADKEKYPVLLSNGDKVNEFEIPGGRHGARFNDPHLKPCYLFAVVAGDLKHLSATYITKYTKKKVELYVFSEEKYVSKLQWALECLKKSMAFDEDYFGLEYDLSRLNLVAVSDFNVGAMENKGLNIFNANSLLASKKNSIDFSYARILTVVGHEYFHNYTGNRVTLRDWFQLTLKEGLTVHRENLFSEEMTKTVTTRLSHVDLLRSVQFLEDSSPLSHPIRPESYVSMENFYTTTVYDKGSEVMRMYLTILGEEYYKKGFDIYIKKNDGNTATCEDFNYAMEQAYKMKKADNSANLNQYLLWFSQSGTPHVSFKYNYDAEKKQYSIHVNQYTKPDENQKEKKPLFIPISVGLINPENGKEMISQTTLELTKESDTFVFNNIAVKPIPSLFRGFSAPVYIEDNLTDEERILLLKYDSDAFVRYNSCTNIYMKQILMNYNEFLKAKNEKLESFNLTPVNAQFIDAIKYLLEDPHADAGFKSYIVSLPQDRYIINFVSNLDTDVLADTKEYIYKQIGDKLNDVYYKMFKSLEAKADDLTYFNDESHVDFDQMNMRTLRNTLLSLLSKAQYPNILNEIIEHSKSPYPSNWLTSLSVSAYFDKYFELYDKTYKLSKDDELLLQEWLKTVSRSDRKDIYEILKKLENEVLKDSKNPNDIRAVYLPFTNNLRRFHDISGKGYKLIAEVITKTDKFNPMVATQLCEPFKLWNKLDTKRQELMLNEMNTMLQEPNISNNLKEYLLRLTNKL

[11] = molecular target: T6, Rac GTPase-activating protein 1 (Homo sapiens, UniProt Q9H0H5); assay: blockers of MgcRacGAP-driven Rac1 GTP hydrolysis – biochemical, ADP Hunter fluorescence, primary and confirmatory, confirmation (AID 624330); type: functional
T6 sequence (Q9H0H5 whole entry): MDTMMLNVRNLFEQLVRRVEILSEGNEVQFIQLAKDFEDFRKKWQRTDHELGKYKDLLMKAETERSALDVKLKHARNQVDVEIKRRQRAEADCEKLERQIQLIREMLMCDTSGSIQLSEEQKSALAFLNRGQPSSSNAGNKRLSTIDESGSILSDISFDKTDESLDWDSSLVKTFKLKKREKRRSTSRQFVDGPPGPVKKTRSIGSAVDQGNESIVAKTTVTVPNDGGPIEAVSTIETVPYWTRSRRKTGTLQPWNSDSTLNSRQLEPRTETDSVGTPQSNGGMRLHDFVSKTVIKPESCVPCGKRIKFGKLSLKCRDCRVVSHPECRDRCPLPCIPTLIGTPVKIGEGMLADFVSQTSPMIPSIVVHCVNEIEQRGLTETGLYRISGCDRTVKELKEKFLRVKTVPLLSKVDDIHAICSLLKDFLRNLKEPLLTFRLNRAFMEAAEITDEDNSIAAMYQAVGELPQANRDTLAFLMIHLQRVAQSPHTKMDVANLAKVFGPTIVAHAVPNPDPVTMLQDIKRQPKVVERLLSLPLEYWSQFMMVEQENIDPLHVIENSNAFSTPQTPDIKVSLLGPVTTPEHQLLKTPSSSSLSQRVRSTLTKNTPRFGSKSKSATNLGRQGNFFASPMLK

[12] = molecular target: 72 kDa type IV collagenase (Homo sapiens, UniProt P08253); assay: Dose Response validation of uHTS RPN11 inhibitor hits using a MMP-2 Fluorescence assay.; type: functional
[13] = viability loss in HEK293 cells – cell-based, plate reader, cherry-picked samples, cytotoxicity control, dose response (AID 743446); type: functional
[14] = inhibition of ARNT PAS-B/TACC3 complex formation – biochemical, AlphaScreen, cherry-picked samples, confirmation (AID 651703); type: functional, Homo sapiens;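 also: His-tagged ARNT PAS-B domain paired with GST-TACC3 E629A dimer coactivator fragment; potency of inhibitors that break up the complex and lower AlphaScreen signal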
HEK293 = assay: EBV LMP1 TES2 canonical NF-kB signalling blockers – cell-based, HEK293, luciferase, cherry-pick, dose response (AID 588343); type: functional; details: Homo sapiens
[15] = toxicity toward HepG2 liver cells – cell-based, plate reader, cherry-pick, antagonist series, cytotoxicity control, dose response (AID 743416); type: functional
[16] = molecular target: Luciferin 4-monooxygenase (Photinus pyralis, UniProt P08659); assay: inhibition of purified Photinus pyralis luciferase – biochemical, luminescence, dose response (AID 1891)
[17] = blockade of melanocortin 4 receptor signaling – cell-based, plate reader, cherry pick, counter-screen for LGR2 antagonist project, dose response (AID 743444); type: functional;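 also: transfected HEK 293 cells stimulated with alpha-MSH peptide; potency of inhibitors of the alpha-MSH evoked signal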
[18] = blockers of bursicon-stimulated LGR2 cAMP reporter – cell-based, HEK293, CRE-luciferase reporter, cherry pick, set 2, dose response (AID 743343); type: functional;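 also: transfected cells were stimulated with diluted bursicon conditioned medium after compound addition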
[19] = A549 cell cytotoxicity, dose response, cytotoxicity control, plate reader, cherry-pick, antagonist series (AID 743412); type: functional, cell-based
[20] = Luminescence Cell-Based Dose Confirmation HTS to Identify Inhibitors of Platelet Dense Granule Release. [Related pubchem assays: 1663 (Primary HTS), 1678 (Summary of Project)]; type: functional
[21] = Fluorescence-based cell-based high throughput dose response assay for inhibitors of the interaction of nucleotide-binding oligomerization domain containing 2 (NOD2) and the receptor-interacting serine-threonine kinase 2 (RIPK2).; type: functional; details: Homo sapiens

Large T antigen, sequence (P03070 whole entry): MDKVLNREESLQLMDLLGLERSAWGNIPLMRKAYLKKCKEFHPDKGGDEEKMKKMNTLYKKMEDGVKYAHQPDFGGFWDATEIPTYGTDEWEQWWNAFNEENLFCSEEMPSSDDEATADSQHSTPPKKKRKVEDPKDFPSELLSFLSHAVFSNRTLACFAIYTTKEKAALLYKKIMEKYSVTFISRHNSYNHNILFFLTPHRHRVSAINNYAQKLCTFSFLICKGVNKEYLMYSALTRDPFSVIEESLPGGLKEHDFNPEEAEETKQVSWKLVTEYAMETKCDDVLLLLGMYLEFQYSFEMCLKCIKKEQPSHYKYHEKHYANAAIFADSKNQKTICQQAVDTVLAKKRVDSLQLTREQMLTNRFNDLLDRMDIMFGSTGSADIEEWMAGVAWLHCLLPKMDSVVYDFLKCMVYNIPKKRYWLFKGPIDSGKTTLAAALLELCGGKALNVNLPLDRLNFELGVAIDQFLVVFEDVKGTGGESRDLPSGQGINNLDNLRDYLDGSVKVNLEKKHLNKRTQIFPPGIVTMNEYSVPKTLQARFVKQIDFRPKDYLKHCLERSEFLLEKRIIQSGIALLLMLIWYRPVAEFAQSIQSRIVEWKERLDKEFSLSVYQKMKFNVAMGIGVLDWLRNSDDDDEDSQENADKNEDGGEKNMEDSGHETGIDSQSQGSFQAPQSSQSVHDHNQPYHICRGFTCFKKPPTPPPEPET
Steroidogenic factor 1, sequence (Q13285 whole entry): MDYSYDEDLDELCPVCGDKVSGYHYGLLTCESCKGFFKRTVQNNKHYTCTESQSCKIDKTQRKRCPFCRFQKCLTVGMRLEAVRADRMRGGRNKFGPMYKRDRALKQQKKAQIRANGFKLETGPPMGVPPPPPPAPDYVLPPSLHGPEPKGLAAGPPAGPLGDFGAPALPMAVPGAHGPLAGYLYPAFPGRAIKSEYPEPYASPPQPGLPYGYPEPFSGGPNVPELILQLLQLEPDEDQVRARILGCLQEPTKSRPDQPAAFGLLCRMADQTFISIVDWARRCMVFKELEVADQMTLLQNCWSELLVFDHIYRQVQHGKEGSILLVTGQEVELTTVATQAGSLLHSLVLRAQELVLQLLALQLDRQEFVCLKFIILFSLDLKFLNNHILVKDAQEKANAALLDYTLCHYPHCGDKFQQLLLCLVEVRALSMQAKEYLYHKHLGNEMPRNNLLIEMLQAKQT
Nuclear receptor subfamily 5 group A member 2, sequence (O00482 whole entry): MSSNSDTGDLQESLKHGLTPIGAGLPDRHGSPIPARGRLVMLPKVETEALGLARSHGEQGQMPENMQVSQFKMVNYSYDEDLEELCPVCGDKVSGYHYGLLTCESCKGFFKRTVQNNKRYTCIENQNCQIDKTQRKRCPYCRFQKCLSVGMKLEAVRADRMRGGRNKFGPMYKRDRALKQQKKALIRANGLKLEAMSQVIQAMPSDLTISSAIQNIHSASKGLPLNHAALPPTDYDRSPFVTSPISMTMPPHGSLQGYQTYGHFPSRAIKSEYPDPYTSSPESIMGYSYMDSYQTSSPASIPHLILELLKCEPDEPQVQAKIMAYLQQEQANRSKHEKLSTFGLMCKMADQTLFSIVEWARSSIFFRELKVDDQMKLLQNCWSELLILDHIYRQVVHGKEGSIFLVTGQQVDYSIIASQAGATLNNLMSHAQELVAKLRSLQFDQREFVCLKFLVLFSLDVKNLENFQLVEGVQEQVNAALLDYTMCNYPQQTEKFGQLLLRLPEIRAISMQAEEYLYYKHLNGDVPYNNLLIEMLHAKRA
Genome polyprotein, sequence (P29990 2492-3391 limits assumed): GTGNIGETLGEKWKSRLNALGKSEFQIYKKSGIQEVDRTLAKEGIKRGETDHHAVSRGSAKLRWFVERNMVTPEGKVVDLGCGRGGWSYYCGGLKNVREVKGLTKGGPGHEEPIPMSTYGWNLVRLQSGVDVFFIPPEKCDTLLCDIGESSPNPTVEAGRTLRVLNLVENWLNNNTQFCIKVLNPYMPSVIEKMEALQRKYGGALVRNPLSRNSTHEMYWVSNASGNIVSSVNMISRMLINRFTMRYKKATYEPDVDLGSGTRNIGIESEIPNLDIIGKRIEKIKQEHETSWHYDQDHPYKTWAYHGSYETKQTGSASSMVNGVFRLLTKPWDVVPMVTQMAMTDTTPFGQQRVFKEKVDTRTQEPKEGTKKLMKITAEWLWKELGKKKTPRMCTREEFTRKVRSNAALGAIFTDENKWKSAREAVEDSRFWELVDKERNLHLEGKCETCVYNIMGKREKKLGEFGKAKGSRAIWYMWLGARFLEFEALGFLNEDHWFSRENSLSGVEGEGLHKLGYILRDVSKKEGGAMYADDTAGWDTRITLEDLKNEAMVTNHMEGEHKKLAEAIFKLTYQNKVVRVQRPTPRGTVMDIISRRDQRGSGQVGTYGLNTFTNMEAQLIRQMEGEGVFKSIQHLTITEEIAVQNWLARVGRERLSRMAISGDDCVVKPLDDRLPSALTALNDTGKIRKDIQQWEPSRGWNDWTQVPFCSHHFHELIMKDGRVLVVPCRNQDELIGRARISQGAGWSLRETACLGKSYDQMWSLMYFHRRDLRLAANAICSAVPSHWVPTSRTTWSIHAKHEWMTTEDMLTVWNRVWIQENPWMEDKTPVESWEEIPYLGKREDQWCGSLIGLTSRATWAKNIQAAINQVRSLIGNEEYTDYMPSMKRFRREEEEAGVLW
26S proteasome non-ATPase regulatory subunit 14, sequence (O00487 whole entry): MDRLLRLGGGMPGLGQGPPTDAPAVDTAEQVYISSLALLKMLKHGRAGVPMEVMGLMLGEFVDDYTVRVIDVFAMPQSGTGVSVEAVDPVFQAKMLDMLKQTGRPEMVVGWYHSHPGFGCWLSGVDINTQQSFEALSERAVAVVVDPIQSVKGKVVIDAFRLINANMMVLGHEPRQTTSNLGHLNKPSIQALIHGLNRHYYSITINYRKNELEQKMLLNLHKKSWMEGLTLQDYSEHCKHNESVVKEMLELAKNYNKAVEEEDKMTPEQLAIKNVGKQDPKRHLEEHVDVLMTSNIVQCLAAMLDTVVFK
Luciferin 4-monooxygenase, sequence (P08659 whole entry): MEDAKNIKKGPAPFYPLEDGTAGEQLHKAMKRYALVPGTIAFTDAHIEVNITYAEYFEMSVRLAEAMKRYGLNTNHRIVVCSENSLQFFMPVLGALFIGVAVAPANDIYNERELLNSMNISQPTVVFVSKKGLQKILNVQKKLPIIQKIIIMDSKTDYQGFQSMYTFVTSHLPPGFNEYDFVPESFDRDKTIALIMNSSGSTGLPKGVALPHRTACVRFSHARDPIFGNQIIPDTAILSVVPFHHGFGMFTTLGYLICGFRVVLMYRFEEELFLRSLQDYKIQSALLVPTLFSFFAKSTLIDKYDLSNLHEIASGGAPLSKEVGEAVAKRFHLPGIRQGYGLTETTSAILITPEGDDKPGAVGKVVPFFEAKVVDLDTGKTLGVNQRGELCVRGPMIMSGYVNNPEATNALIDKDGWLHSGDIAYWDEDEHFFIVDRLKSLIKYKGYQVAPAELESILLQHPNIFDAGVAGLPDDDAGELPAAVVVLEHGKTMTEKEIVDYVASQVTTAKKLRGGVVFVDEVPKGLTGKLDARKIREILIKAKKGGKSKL
72 kDa type IV collagenase, sequence (P08253 whole entry): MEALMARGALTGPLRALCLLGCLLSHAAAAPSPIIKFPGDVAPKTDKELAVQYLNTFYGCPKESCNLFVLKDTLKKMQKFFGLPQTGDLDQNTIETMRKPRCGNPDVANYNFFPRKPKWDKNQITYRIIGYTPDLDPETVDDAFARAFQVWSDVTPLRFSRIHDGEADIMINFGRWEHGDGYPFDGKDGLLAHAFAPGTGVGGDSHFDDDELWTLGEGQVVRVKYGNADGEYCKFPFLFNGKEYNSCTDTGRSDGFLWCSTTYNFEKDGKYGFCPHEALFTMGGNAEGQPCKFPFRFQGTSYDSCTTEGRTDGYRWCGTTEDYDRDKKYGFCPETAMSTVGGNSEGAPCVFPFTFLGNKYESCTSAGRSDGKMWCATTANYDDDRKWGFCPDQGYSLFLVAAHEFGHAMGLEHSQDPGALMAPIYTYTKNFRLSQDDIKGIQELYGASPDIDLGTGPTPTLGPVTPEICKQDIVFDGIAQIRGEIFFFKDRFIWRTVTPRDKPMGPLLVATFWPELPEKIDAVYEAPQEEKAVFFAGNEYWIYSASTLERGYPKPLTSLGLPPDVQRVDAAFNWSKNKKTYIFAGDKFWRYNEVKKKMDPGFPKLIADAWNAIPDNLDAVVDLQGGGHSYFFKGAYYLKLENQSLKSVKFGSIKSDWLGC

IC50 [1]: < 0.368 µM (active)
IC50 [2]: 7.38 µM (active)
EC50 [3]: > 53 µM (inactive)
Structure (SMILES): O=C(Nc1nnc(S(=O)(=O)Nc2ccccc2)s1)c1ccccc1Cl

Structure (SMILES): O=C(COc1ccc2c3c(c(=O)oc2c1)CCCC3)NCCCN1CCOCC1
IC50 [4]: 35.9 µM (inactive)
IC50 (Steroidogenic factor 1): 35.9 µM (inactive)
IC50 [5]: 35.9 µM (inactive)

Structure (SMILES): Cc1n[nH]c(O)c1C(c1c(C)n[nH]c1O)c1cn(C)c2ccccc12
IC50 [6]: 11.2 µM (active)
IC50 [7]: 11.9 µM (active)

IC50 (Large T antigen): 9.15 µM (active)
EC50 [8]: > 104 µM (inactive)
Structure (SMILES): COCCCn1c(=O)c2ccccc2n2c(S)nnc12

IC50 [9]: 5.86 µM (active)
IC50 (Prothrombin): > 100 µM (inactive)
IC50 [10]: 17.1 µM (active)
IC50 (Genome polyprotein): 6.33 µM (active)
IC50 [1]: < 0.368 µM (active)
IC50 [2]: 1.47 µM (active)
EC50 [3]: 10 µM (active)
IC50 (Aminopeptidase N): 74.9 µM (active)
IC50 [11]: 85.9 µM (active)
IC50 (Large T antigen): 35.2 µM (active)
IC50 [12]: > 100 µM (inactive)
Structure (SMILES): O=C(O)c1ccc(COc2ccccc2C=C2C(=O)c3ccccc3C2=O)cc1

Structure (SMILES): Cc1ccc2[nH]c(-c3ccccn3)nc2c1
AC50 [13]: > 52 µM (inactive)
AC50 [14]: 76 µM (active)
AC50 (HEK293): 3.34 µM (active)
AC50 [15]: 34.3 µM (active)
EC50 [16]: 2.78 µM (active)
AC50 [17]: 6.67 µM (active)
AC50 [18]: 5.45 µM (active)
AC50 [19]: 27.3 µM (active)
EC50 [20]: 14.7 µM (active)

Structure (SMILES): O=C1/C(=C/c2ccccc2)CN(C(=O)CCN2CCOCC2)C/C1=C\c1ccccc1
IC50 [21]: 6.29 µM (active)

Structure (SMILES): C[C@H](CO)N1C[C@H](C)[C@H](CN(C)Cc2ccncc2)Oc2cc(-c3ccccc3F)ccc2S1(=O)=O
IC50 [4]: 1.33 µM (active)
IC50 (Steroidogenic factor 1): 1.33 µM (active)
IC50 [5]: 15.5 µM (inactive)
